Test results as given in ChEMBL document CHEMBL3856234, “Development of Multifunctional Pyrimidinylthiourea Derivatives as Potential Anti-Alzheimer Agents” (J Med Chem, 2016).
Converted amounts (≈) assume the structure as drawn. Each block holds one molecule with its values, some of them ahead of it. The source made the active and inactive calls. The rule behind the calls is not given here.

Legend:
[1] = Inhibition of cupric ion-induced aggregation of amyloid beta (1 to 42) (unknown origin) at compound:amyloid beta (1 to 42):Cu2+ ratio of 2:1:1 measured after 24 hrs by TEM analysis
Acetylcholinesterase = target: T1, Acetylcholinesterase (Rattus norvegicus, UniProt P37136); assay: Inhibition of rat cortex AChE using acetylthiocholine iodide as substrate measured after 20 mins by Ellman's method
T1 sequence (P37136 whole entry): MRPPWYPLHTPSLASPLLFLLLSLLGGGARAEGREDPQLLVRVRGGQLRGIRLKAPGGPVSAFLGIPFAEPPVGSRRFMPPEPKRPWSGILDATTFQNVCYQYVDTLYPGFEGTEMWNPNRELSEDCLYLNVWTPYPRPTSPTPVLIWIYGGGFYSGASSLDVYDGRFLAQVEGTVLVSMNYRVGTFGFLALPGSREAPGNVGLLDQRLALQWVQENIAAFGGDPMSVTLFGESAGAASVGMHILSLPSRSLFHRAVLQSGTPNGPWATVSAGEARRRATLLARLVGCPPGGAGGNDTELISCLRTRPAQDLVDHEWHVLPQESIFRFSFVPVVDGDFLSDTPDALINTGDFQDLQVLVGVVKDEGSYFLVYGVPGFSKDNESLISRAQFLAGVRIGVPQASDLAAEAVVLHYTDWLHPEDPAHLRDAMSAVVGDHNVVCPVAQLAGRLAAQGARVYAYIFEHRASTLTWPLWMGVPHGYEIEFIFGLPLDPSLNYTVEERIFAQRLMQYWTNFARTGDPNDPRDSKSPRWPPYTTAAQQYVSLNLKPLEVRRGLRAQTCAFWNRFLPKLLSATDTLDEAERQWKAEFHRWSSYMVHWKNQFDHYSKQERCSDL

[2] = target: T2, Acetylcholinesterase (Rattus norvegicus) (UniProt P37136); assay: Inhibition of rat cortex AChE at 40 uM using acetylthiocholine iodide as substrate measured after 20 mins by Ellman's method relative to control
T2 sequence (whole entry): T1 sequence (P37136 whole entry)

[3] = Permeability of the compound in PBS/EtOH (7:3) buffer measured after 10 hrs by PAMPA assay; assay type: ADME; settings: read-out: Peff
Rattus norvegicus [4] = species: Rattus norvegicus; assay: Inhibition of rat serum BuChE at 40 uM using butyrylthiocholine as substrate measured after 20 mins by Ellman's method relative to control
[5] = Antioxidant activity assessed as trolox equivalent of AAPH radical scavenging activity preincubated for 10 mins followed by AAPH challenge measured every min for 180 mins by ORAC-FL assay; assay type: functional
Rattus norvegicus [6] = species: Rattus norvegicus; assay: Selectivity index, ratio of IC50 for rat serum BuChE to IC50 for rat cortex AChE
[7] = Inhibition of rat serum BuChE using butyrylthiocholine as substrate measured after 20 mins by Ellman's method
[8] = Metal chelating activity assessed as Cu2+-compound complex formation at 40 uM measured after 1 hr by UV-vis spectroscopic analysis; assay type: physicochemical
[9] = Metal chelating activity assessed as Zn2+-compound complex formation at 40 uM measured after 1 hr by UV-vis spectroscopic analysis; assay type: physicochemical
[10] = Solubility of the compound in water measured after 24 hrs by HPLC analysis; assay type: physicochemical
[11] = Metal chelating activity assessed as Fe2+-compound complex formation at 40 uM measured after 1 hr by UV-vis spectroscopic analysis; assay type: physicochemical
[12] = Cytotoxicity against human SH-SY5Y cells assessed as reduction in cell viability at 100 uM measured after 24 hrs by MTT assay; assay type: toxicity, cell-based
[13] = Metal chelating activity assessed as Fe3+-compound complex formation at 40 uM measured after 1 hr by UV-vis spectroscopic analysis; assay type: physicochemical
[14] = Cytotoxicity against human SH-SY5Y cells assessed as reduction in cell viability at 10 and 30 uM measured after 24 hrs by MTT assay; assay type: toxicity, cell-based
[15] = Cytotoxicity against human SH-SY5Y cells assessed as reduction in cell viability after 24 hrs in presence of Cu2+ ion by MTT assay; assay type: toxicity, cell-based

inhibition [1]: Active
SMILES: Oc1c(I)cc(Cl)c2cccnc12

SMILES: CCNC(=S)Nc1cc(-n2cnc([N+](=O)[O-])c2)ncn1
IC50 (Acetylcholinesterase): 170 nM

SMILES: CCNC(=S)Nc1nc2c(c(-n3ccnc3)n1)CCC2
IC50 (Acetylcholinesterase): > 40000 nM | inhibition [2]: 24.4%

SMILES: CCNC(=S)Nc1cc(-n2cnc(C)c2)ncn1
IC50 (Acetylcholinesterase): 3250 nM

SMILES: CCNC(=S)Nc1cc(-n2cnc3ccccc32)ncn1
IC50 (Acetylcholinesterase): 7840 nM | inhibition [2]: 66.2%

SMILES: S=C(NCc1ccccc1)Nc1cc(-n2cccn2)ncn1
inhibition [2]: 17.3%

SMILES: CCNC(=S)Nc1cc(-n2cnc(CNC3CCCCC3)c2)ncn1
IC50 (Acetylcholinesterase): 424 nM

SMILES: CCNC(=S)Nc1cc(-n2ccnc2)nc(C)n1
IC50 (Acetylcholinesterase): 8720 nM | inhibition [2]: 71.4%

Papp at 10 h [3]: 16.6 ×10⁻⁶ cm/s
SMILES: CNCCCN1c2ccccc2CCc2ccccc21 [DESIPRAMINE]

SMILES: CCNC(=S)Nc1cc(-n2cnc(CNC)c2)ncn1
inhibition (Rattus norvegicus [4]): 27.3% | IC50 (Acetylcholinesterase): 251 nM | Activity (umolequiv/umol) [5]: 1.32 | Ratio IC50 (Rattus norvegicus [6]): > 159 | IC50 [7]: > 40 µM

SMILES: CCNC(=S)Nc1cc(NCc2ccccc2)ncn1
IC50 (Acetylcholinesterase): > 40000 nM | inhibition [2]: 10.9%

SMILES: CCNC(=S)Nc1cc(-n2cnc(CN3CCCC3)c2)ncn1
Activity [8]: Active | Activity [9]: Active | solubility at 24 h [10]: 340 µg/mL (≈ 1030 µM) | Activity [11]: Active | IC50 (Acetylcholinesterase): 67 nM | Activity [12]: Toxic | Activity [13]: Active | Papp at 10 h [3]: 1.15 ×10⁻⁶ cm/s | Activity [14]: Non-Toxic | Activity [15]: Non-Toxic | IC50 [7]: > 40 µM

SMILES: CCNC(=O)Nc1cc(-n2cccn2)ncn1
inhibition [2]: 22.1%

SMILES: CCNC(=S)Nc1cc(-n2cnc(Cl)c2)ncn1
IC50 (Acetylcholinesterase): 615 nM

SMILES: CCNC(=S)Nc1cc(-n2cnc(CN3CCCCCC3)c2)ncn1
IC50 (Acetylcholinesterase): 121 nM | Activity (umolequiv/umol) [5]: 1.24 | Ratio IC50 (Rattus norvegicus [6]): 59 | Papp at 10 h [3]: 5.3 ×10⁻⁶ cm/s | IC50 [7]: 7.19 µM

SMILES: CCOc1cc(-n2cccn2)ncn1
inhibition [2]: 11.8%

SMILES: CCNC(=S)Nc1cc(N2CCCC2)ncn1
IC50 (Acetylcholinesterase): > 40000 nM | inhibition [2]: 39.2%

SMILES: COc1cc2c(cc1OC)C(=O)C(CC1CCN(Cc3ccccc3)CC1)C2 (stereo unspecified) [DONEPEZIL]
Activity [12]: Toxic | Activity [14]: Non-Toxic

SMILES: CCNC(=S)Nc1cc(-n2cnc(CN(CC)CC)c2)ncn1
inhibition (Rattus norvegicus [4]): 20.2% | IC50 (Acetylcholinesterase): 115 nM | Activity (umolequiv/umol) [5]: 1.31 | Ratio IC50 (Rattus norvegicus [6]): > 348 | Papp at 10 h [3]: 1 ×10⁻⁶ cm/s | IC50 [7]: > 40 µM

SMILES: CCNC(=S)Nc1cc(-n2cnc(C(F)(F)F)c2)ncn1
IC50 (Acetylcholinesterase): 957 nM

SMILES: CCNC(=S)Nc1cc(-n2cnc(CNCc3ccccc3)c2)ncn1
inhibition (Rattus norvegicus [4]): 48% | IC50 (Acetylcholinesterase): 274 nM | Activity (umolequiv/umol) [5]: 1.3 | Ratio IC50 (Rattus norvegicus [6]): > 146 | IC50 [7]: > 40 µM

SMILES: CCNC(=S)Nc1cc(-n2cnc(CN3CCOCC3)c2)ncn1
inhibition (Rattus norvegicus [4]): 13.3% | IC50 (Acetylcholinesterase): 304 nM | Activity (umolequiv/umol) [5]: 1.48 | Ratio IC50 (Rattus norvegicus [6]): > 132 | Papp at 10 h [3]: 0.35 ×10⁻⁶ cm/s | IC50 [7]: > 40 µM

SMILES: CCNC(=S)Nc1cc(-n2cccc2)ncn1
IC50 (Acetylcholinesterase): > 40000 nM | inhibition [2]: 13.8%

SMILES: CCNC(=S)Nc1cc(-n2cnc(CN3CCCCC3)c2)ncn1
IC50 (Acetylcholinesterase): 111 nM | Activity (umolequiv/umol) [5]: 1.27 | Ratio IC50 (Rattus norvegicus [6]): 164 | Papp at 10 h [3]: 5 ×10⁻⁶ cm/s | IC50 [7]: 18.2 µM

SMILES: CCNC(=S)Nc1cc(-n2ccnc2)ncn1
IC50 (Acetylcholinesterase): 1590 nM | inhibition [2]: 72.8%

SMILES: S=C(Nc1cc(-n2cccn2)ncn1)NC1CCCCC1
inhibition [2]: 11.2%

SMILES: CCNC(=S)Nc1cc(-n2cnc(C=O)c2)ncn1
inhibition (Rattus norvegicus [4]): 4.63% | IC50 (Acetylcholinesterase): 166 nM | Activity (umolequiv/umol) [5]: 0.31 | Ratio IC50 (Rattus norvegicus [6]): > 241 | IC50 [7]: > 40 µM

SMILES: CCNCc1cn(-c2cc(NC(=S)NCC)ncn2)cn1
inhibition (Rattus norvegicus [4]): 21.5% | IC50 (Acetylcholinesterase): 342 nM | Activity (umolequiv/umol) [5]: 1.33 | Ratio IC50 (Rattus norvegicus [6]): > 117 | IC50 [7]: > 40 µM

SMILES: CCNC(=S)Nc1ccnc(-n2ccnc2)n1
IC50 (Acetylcholinesterase): > 40000 nM | inhibition [2]: 46.6%

SMILES: CCNC(=S)Nc1cc(-n2ccnn2)ncn1
IC50 (Acetylcholinesterase): 14400 nM | inhibition [2]: 61.5%

SMILES: CCNC(=S)Nc1cc(-n2cccn2)ncn1
IC50 (Acetylcholinesterase): 8140 nM | inhibition [2]: 77.3%
